Source: US20250152723A1, “ANTIBODY-DRUG CONJUGATES INVOLVING ERIANIN AND THE FABRICATION METHODS AND APPLICATIONS THEREOF” (Laboratory for Synthetic Chemistry and Chemical Biology …, priority 2023, published 2025)

How the values were obtained:
[1] = test system: MDA-MB-231 breast cancer cell (HER2−); assay: In vitro anti-proliferative study (NBB staining, 6 days); type: cell-based; settings: MDA-MB-231 (HER2−), 6 days incubation, mean±SD
Description: (§1) Briefly, Different cell lines (1×10^3 cells/well) are seeded in a microtiter plate (96 well) and incubated overnight before the treatment. […] After the media is removed, the cells are fixed with formaldehyde (3%; 50 μL) in PBS and stained with NBB reagent (0.05%, 0.1 M sodium acetate, 9% acetic acid; 50 μL) for overnight. The stained cells in each well are washed thrice gently with deionized water and solubilized in sodium hydroxide solution (50 mM; 100 μL). The cell viability is determined by measuring the absorbance of 620 nm in each well by microplate reader. The experiments are repeated in triplicate. The IC50 values are presented as the mean±standard deviation.

[2] = test system: MCF-10A breast epithelial cell (HER2−); assay: as above; type: cell-based; settings: MCF-10A (HER2−), 6 days incubation, mean±SD
Description: as §1

[3] = test system: SK-BR-3 breast cancer cell (HER2+); assay: as above; type: cell-based; settings: SK-BR-3 (HER2+), 6 days incubation, mean±SD
Description: as §1

[4] = test system: SK-OV-3 ovarian cancer cell (HER2+); assay: as above; type: cell-based, human; settings: SK-OV-3 (HER2+), 6 days incubation, mean±SD
Description: as §1

[5] = test system: HER2-positive SK-OV-3 human ovarian cancer xenograft; assay: Antitumor activity in SK-OV-3 xenograft model; type: in vivo, Female BALB/cAnN-nu (nude) mice; settings: 50 mg/kg intravenous, four doses (day 0, 4, 8, 12), compared to vehicle control
Description: Female BALB/cAnN-nu (nude) mice (5-8 weeks old) are housed in the Laboratory Animal Unit, The University of Hong Kong. The mice are freely access to food and water. SKOV-3 ovarian cancer cells (1×10^7) in PBS (100 μL) are injected into the right flanks of each mouse subcutaneously. […] The mice are treated with intravenous administration of a total of four doses on day 0, 4, 8 and 12. The tumor size and body weight are monitored during the treatment. After 28 days, the mice are sacrificed and the tumor weight is measured.

Question: What does the source list for `COc1ccc(CCc2cc(OC)c(OC)c(OC)c2)cc1O` [Erianin, erianin]?
Answer: IC50 [1]: 21.6 ± 0.2 nM; IC50 [2]: 25.7 ± 0.2 nM; IC50 [3]: 24.1 ± 0.1 nM; IC50 [4]: 21.4 ± 0.3 nM; tumor growth suppression [5]: no effect
